The numbers were not newly measured in patent publication US12697339B2, “Composition and methods of treatment using synergistically-enhanced supplementation” (Xygenyx Inc., priority 2023, dated 2026), which cites them from elsewhere.

Non-standard residues stand in square brackets, D forms with d. Residues, ends and D or L forms follow the SMILES beside them. Cit = NC(=O)NCCC[C@H](N)C(=O)O Where only a bound is given, the exact number is not on record here.

Series [1] concerns skin. Conditions: as penetration enhancer for transdermal drugs.
The test system of series [2] is skin. Conditions: topical application, concentrations 0.5-5%.
The conditions of series [3]: in vivo.
The conditions of series [4]: compared to α-tocopherol with biological activity factor 1.0.
The conditions of series [5]: studies using mice.
For series [6] the following is noted: even when dietary intake occurs in equal portions.
For series [7] the following is noted: in vivo. The source holds these as a separate data set.
The test system of series [8] is wide dynamic range neurons in the ventroposterolateral nucleus of the thalamus. The conditions noted are these: believed.
Series [9] deals with skin. Conditions: topical formulations, within four weeks of treatment.

For the compound `CC(C)[C@@H]1CC[C@@H](C)C[C@H]1O` [Menthol], the “factor of increase in drug uptake via the transdermal route” value in the series on skin [1] is no less than 10.
Take `C=CCCCCCCCCC(=O)N[C@@H](Cc1ccccc1)C(=O)O` [Undecylenoyl phenylalanine]: in the series with skin [2], the “time of treatment to skin lightening effects” value is no less than 7 days.
For the compound `CCNC(=O)CC[C@H](N)C(=O)O` [Theanine], the “dose considered safe and well-tolerated” value in series [3] is listed as “up to 400 mg per day”.
On to `Cc1cc(O)cc2c1O[C@](C)(CCC[C@H](C)CCC[C@H](C)CCCC(C)C)CC2` [δ-tocopherol], for which, in series [4], the relative biological activity is 0.03.
Regarding `CC(CN)C(=O)O` [L-BAIBA, L-beta-aminoisobutyric acid], the tolerated dose in series [5] is 10-100 mg/kg of bodyweight.
As to `CC12CCC(CC1)C(C)(C)O2` [Eucalyptol], in the series with skin [1], the “factor of increase in drug uptake via the transdermal route” value is reported as “more than 10”.
With `Cc1c(O)cc2c(c1C)O[C@](C)(CCC[C@H](C)CCC[C@H](C)CCCC(C)C)CC2` [γ-tocopherol], the “concentration in vivo relative to α-tocopherol” value in series [6] is given as “roughly 10%”. Moreover, the relative biological activity in [4] was 0.1.
Turning to “HGH: hormone comprising a peptide chain that is synthesized in the pituitary gland”, the biological half-life in series [7] was 10-20 minutes.
For the compound `CCCCCc1cc(O)c2c(c1)OC(C)(C)C1CCC(C)=CC21` (stereo not drawn) [THC, Δ-9-tetrahydrocannabinol], the “power in mediating pain relative to morphine” value in series [8] is recorded as “ten times more powerful than morphine”.
`Cc1cc(O)c(C)c2c1O[C@](C)(CCC[C@H](C)CCC[C@H](C)CCCC(C)C)CC2` [β-tocopherol]: in series [4], the relative biological activity was 0.5.
With `CC[C@H](C)[C@H](NC(=O)[C@H](CC(=O)O)NC(=O)[C@@H](N)CCCCN)C(=O)N[C@@H](CCCNC(N)=O)C(N)=O` [Tripeptide-10 citrulline] (H-KDI[Cit]-NH2), the improvement of suppleness with skin [9] was no more than 54%.
`Cc1c(C)c2c(c(C)c1O)CC[C@@](C)(CCC[C@H](C)CCC[C@H](C)CCCC(C)C)O2` [α-tocopherol]: the “reduction of risk of coronary disease” value (dietary supplementation, doses up to 400 IU/day) was “up to 34%”. In addition, the “reduction of risk of developing neurodegenerative diseases such as Alzheimer's Syndrome or dementia” value (dietary supplementation, doses up to 400 IU/day, controlled trials) is no more than 24%. The “reduction in the development of age-related cataracts” value (in combination with 10-20 mg β-carotene and 400-500 mg vitamin C, doses around 400-500 IU) was 23%.
